Molecular target: EP4 receptor (Homo sapiens, UniProt P35408)
Assay: cAMP accumulation assay in cells expressing EP4 (Biological Example 1, diol derivative)
Assay type: cell-based
Conditions: cAMP luminescence, mean of triplicate
Protocol: Commercial cAMP accumulation assays are typically competitive immunoassays in which free cAMP from cell lysates competes for antibody binding against a "labeled" cAMP molecule. This positive signal is generated in direct proportion to the amount of free cAMP. In our assays cAMP standards and samples are pipetted into the wells of a microplate. An antibody specific cAMP is added to the wells. A substrate is added to the wells and luminescence develops in proportion to the amount of cAMP which accumulated during treatment of cells which express the EP4 receptor with standards and samples. The intensity of the luminescence is measured in a luminometer.
The response of the EP4 expressing cells treated with the diol derivative is compared to Nileprost. Results shown are the mean of triplicate determinations.

EP4 receptor, sequence (P35408 whole entry): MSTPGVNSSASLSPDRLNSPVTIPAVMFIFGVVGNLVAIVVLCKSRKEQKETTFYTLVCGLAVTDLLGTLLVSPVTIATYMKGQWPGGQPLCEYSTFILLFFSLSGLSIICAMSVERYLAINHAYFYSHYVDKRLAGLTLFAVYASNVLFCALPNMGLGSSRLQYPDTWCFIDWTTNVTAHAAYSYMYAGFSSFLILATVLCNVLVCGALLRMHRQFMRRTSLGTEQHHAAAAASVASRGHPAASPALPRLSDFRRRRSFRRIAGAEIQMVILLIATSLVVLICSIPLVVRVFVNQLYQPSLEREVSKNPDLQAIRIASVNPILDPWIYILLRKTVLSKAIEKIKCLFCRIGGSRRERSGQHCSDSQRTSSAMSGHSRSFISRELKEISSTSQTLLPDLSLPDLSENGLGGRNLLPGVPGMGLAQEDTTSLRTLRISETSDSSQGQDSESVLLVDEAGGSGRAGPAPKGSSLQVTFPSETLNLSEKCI

- RLU - background (compound 0.010 nM): 0 RLU
- RLU - background (compound 0.152 nM): 850786 RLU
- RLU - background (compound 0.457 nM): 1291900 RLU
- RLU - background (compound 1.372 nM): 1521826 RLU
- RLU - background (compound 4.115 nM): 1626762 RLU
- RLU - background (compound 12.346 nM): 1589698 RLU
- RLU - background (compound 37.037 nM): 1312998 RLU
- RLU - background (compound 111.111 nM): 1258626 RLU
- RLU - background (compound 333.333 nM): 1648306 RLU
- RLU - background (compound 1000.000 nM): 1635488 RLU
- RLU - background (compound 3000.000 nM): 1625442 RLU
- RLU - background (compound 9000.000 nM): 1599712 RLU
Compound: CCCCC(C)[C@H](O)/C=C/[C@@H]1[C@H]2C/C(=C(\C#N)CCCC(=O)O)O[C@H]2C[C@H]1O (stereo partly drawn) [Nileprost, 5-cyano-16-methylprostacyclin]
